According to ChEMBL document CHEMBL1201862, “PubChem BioAssay data set” (2004):
Activity calls are given as the source filed them.

Legend:
[1] = biological target: Peroxisome proliferator-activated receptor gamma/Nuclear receptor coactivator 1 (Homo sapiens, UniProt P37231); assay type: functional;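 note: agonist potency as compounds enhance coactivator SRC-1 recruitment to PPARgamma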
[2] = biological target: Peroxisome proliferator-activated receptor gamma/Nuclear receptor coactivator 3 (Homo sapiens, UniProt P37231); assay type: functional;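 note: agonist potency for raising coactivator recruitment to the receptor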
Chain of Peroxisome proliferator-activated receptor gamma/Nuclear receptor coactivator 3 (P37231 whole entry): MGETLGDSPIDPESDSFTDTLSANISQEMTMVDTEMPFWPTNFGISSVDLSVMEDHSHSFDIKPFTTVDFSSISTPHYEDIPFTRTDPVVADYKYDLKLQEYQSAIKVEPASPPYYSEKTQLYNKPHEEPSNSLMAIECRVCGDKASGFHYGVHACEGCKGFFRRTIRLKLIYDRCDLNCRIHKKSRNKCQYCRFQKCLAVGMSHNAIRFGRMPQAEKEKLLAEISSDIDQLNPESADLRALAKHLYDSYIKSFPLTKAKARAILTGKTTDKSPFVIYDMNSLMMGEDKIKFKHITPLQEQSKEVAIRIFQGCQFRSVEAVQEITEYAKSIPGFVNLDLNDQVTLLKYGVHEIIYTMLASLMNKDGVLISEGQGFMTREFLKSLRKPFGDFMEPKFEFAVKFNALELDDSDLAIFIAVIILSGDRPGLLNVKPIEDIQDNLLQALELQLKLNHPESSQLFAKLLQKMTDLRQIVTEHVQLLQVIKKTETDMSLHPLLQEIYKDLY
Chain of Peroxisome proliferator-activated receptor gamma/Nuclear receptor coactivator 3 (Q9Y6Q9 whole entry, further chain): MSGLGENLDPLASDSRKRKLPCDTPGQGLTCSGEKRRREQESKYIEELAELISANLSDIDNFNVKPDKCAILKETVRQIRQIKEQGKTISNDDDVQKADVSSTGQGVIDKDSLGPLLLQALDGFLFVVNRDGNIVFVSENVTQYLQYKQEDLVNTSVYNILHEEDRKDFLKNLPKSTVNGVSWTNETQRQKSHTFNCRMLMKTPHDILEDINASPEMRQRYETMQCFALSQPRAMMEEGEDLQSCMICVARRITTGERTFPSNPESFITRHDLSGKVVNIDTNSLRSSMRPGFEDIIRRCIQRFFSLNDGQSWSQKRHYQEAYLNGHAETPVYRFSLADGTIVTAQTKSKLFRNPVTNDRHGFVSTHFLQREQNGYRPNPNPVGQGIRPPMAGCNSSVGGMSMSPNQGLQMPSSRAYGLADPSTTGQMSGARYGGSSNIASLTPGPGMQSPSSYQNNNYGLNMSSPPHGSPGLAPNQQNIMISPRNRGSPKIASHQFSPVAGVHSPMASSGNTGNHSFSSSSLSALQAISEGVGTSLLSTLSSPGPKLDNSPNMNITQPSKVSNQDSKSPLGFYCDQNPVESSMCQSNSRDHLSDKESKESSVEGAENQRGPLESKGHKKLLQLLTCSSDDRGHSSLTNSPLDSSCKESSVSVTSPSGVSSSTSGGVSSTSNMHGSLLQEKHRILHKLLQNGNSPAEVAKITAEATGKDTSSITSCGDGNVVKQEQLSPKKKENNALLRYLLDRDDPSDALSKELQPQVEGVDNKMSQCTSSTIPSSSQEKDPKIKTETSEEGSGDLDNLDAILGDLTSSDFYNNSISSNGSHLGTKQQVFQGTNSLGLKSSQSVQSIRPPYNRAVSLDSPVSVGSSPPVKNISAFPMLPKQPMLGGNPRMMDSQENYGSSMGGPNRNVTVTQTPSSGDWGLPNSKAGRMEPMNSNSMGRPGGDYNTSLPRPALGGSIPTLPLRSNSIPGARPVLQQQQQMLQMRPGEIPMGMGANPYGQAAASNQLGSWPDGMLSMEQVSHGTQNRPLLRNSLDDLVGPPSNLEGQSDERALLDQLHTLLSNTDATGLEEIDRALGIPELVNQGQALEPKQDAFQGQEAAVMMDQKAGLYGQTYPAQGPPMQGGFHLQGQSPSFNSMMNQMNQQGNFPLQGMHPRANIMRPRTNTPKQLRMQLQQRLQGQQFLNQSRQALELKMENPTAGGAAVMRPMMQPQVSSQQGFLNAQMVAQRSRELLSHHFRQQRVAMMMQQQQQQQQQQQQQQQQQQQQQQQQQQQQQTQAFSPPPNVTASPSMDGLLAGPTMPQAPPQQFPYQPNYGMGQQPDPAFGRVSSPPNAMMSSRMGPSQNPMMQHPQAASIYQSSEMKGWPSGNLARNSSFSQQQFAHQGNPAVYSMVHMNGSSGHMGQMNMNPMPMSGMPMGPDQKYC

[3] = biological target: Peroxisome proliferator-activated receptor gamma/Nuclear receptor coactivator 2 (Homo sapiens, UniProt P37231); assay type: functional;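 note: agonist potency for raising coactivator recruitment to the receptor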
Chain of Peroxisome proliferator-activated receptor gamma/Nuclear receptor coactivator 2 (P37231 whole entry): as the sequence (P37231 whole entry) above
Chain of Peroxisome proliferator-activated receptor gamma/Nuclear receptor coactivator 2 (Q15596 whole entry, further chain): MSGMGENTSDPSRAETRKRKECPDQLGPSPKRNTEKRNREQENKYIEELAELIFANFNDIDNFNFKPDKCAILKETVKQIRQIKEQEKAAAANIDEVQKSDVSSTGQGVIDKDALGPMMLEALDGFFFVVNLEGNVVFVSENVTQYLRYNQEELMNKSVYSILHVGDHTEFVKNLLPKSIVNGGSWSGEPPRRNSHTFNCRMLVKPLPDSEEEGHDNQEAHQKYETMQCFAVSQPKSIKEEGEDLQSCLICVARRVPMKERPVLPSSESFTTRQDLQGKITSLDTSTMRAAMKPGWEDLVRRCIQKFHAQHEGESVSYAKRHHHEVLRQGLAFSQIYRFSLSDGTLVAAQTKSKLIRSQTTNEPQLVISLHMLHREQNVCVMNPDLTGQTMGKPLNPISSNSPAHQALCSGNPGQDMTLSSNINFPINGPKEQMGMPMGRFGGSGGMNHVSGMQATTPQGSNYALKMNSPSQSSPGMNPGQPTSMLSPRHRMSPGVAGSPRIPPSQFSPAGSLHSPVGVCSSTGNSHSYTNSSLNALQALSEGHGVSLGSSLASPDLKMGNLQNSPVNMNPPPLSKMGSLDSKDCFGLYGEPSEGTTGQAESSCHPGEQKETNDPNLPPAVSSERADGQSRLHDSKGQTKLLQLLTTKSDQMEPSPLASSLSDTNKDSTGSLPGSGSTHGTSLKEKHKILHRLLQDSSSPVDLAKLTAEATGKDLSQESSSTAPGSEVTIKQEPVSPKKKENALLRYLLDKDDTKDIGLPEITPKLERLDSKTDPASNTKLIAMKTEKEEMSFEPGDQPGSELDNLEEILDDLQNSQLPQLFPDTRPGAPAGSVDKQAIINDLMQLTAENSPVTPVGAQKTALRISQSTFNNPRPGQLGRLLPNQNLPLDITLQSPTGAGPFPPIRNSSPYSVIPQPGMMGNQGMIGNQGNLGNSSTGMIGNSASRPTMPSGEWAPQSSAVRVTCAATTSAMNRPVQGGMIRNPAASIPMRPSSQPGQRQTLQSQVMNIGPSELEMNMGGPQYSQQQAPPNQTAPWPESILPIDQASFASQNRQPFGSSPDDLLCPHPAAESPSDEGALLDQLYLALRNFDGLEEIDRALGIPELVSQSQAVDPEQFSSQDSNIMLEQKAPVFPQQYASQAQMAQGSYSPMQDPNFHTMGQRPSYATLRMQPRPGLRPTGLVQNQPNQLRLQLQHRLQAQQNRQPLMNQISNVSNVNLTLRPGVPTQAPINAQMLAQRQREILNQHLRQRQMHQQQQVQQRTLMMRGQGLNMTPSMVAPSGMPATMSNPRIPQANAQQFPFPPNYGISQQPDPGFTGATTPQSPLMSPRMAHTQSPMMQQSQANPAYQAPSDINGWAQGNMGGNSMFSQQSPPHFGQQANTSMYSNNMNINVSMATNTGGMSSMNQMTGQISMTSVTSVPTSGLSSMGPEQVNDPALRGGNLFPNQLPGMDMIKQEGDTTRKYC

[4] = biological target: Mitogen-activated protein kinase 10 (Homo sapiens, UniProt P53779); experiment: Dose response biochemical screening assay for inhibitors of c-Jun N-Terminal Kinase 3 (JNK3). [Related pubchem assays: 746 ]
Chain of Mitogen-activated protein kinase 10 (P53779 whole entry): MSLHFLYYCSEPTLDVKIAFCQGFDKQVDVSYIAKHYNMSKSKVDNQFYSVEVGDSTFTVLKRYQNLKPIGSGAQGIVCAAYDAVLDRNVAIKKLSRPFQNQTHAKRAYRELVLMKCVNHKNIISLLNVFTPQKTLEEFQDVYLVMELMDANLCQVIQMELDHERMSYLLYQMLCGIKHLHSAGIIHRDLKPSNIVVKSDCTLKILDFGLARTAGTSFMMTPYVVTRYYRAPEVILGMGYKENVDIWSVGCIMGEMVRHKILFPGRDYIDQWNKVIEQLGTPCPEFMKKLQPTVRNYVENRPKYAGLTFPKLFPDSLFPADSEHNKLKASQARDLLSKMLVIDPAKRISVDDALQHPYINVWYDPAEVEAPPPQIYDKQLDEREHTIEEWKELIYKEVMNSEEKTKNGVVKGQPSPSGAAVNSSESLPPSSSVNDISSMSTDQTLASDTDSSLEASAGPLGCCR

cells [5] = assay type: functional, cell-based
[6] = non-specific cell cytotoxicity, dose response, cytotoxicity control for PAX8 inhibitor project, plate reader, dry powder samples (AID 743021); assay type: functional, cell-based
[7] = biological target: T1, Microphthalmia-associated transcription factor (Homo sapiens, UniProt O75030); experiment: TRPM1 promoter luciferase signal decrease, dose response, MITF inhibitor project, cell-based, SK-MEL-5, cherry-picked, set 3 (AID 493073); assay type: functional
T1 sequence (O75030 whole entry): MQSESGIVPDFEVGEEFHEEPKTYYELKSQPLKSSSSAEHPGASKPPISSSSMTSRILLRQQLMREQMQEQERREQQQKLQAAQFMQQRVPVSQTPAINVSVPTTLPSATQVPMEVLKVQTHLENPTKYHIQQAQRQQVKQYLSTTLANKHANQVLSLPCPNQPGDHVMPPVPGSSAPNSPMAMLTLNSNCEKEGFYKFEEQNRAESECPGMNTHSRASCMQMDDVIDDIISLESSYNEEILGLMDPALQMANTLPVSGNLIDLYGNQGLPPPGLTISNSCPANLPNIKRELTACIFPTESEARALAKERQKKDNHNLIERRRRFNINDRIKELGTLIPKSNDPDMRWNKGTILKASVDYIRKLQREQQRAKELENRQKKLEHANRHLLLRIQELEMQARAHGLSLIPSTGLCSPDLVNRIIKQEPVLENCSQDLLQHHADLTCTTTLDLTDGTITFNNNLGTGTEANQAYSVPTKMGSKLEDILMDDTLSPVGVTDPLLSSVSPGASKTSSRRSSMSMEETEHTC

Paired box protein Pax-8 = Paired box protein Pax-8 (Homo sapiens, UniProt Q06710); experiment: inhibitors of PAX8-driven TPO luciferase reporter, dose response, RMG-I cells, cherry-pick (AID 687027); assay type: functional, cell-based;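 note: luciferase reporter driven by Pax8 target thyroperoxidase promoter measured by SteadyGlo luminescence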
INS1 = experiment: beta cell apoptosis inhibitors, cytokine rescue, dose response, luminescence, retest (AID 449756); assay type: functional, cell-based; settings: Rattus norvegicus;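 note: cell death triggered by IL-1 beta plus TNF-alpha plus IFN-gamma mixture; protective hits raise ATP signal compared with cytokine alone wells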
[8] = control 3'UTR Renilla luciferase suppression, dose response, counter-screen for Shn3 inhibitor project, cell-based, Clone20-Shn3RL, cherry-picked (AID 624133); assay type: functional
cells [9] = assay type: functional, cell-based; remark: listed apart in the source
[10] = Shn3 3'UTR reporter inhibitors, dose response, cell-based, Clone20 osteoblasts, firefly luciferase, cherry-picked (AID 624132); assay type: functional;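 note: firefly luciferase luminescence from reporter carrying the Shn3 3'UTR in osteoblasts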
[11] = HepG2 cell cytotoxicity, dose response, cytotoxicity control for Shn3 inhibitor project, CellTiter-Glo, cherry-picked (AID 624134); assay type: functional, cell-based
[12] = biological target: T2, Polyadenylate-binding protein 1 (Homo sapiens, UniProt P11940); experiment: PABP1 MLLE–PAM2 interaction inhibitors, dose response, miRNA deadenylation inhibitor project, biochemical, fluorescence polarization, Cy5-PAM2 peptide, secondary (AID 602260); assay type: functional; settings: read-out: IC50_Mean
T2 sequence (P11940 whole entry): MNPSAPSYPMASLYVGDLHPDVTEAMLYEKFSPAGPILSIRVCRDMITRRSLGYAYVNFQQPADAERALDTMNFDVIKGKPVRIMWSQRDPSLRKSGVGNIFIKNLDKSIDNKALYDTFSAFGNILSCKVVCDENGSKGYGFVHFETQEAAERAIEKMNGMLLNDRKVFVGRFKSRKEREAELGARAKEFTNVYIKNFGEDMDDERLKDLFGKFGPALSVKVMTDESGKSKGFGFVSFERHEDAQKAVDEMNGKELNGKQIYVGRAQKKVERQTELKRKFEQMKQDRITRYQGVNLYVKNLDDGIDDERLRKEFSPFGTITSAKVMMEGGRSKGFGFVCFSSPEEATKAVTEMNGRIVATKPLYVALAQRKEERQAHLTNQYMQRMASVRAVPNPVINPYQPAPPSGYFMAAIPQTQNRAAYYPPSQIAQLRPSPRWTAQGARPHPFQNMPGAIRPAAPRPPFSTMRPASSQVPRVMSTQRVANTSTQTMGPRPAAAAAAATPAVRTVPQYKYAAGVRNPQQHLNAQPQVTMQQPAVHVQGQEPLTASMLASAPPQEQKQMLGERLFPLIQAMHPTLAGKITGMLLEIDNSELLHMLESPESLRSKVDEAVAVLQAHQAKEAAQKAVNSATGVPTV

[13] = biological target: T2, Polyadenylate-binding protein 1; experiment: PABP1 MLLE–PAM2 binding inhibitor potency, dose response, biochemical, fluorescence polarization, FITC-PAM2 peptide (AID 602259); assay type: functional; settings: read-out: IC50_Mean
[14] = HepG2 cell cytotoxicity, dose response, cytotoxicity control, cherry-picked samples (AID 1159577); assay type: functional, cell-based
[15] = P. falciparum Dd2 growth inhibitors, dose response, SYBR Green, cherry-picked samples (AID 1159567); assay type: functional, cell-based
[16] = biological target: E3 ubiquitin-protein ligase Mdm2 (Homo sapiens, UniProt Q00987); experiment: enhancers of MDM2-luciferase reporter signal, concentration-effect titration, project on inhibitors of MDM2 ubiquitin ligase, cellular assay, luminescent readout, 384-well plate format (AID 1394); assay type: functional;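 note: MDM2 E3 inhibitors raise luminescence so EC50 is for signal enhancement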
Estrogen receptor beta = Estrogen receptor beta (Homo sapiens, UniProt Q92731);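 note: recombinant ER-beta bound to coactivator SRC1 peptide in presence of estradiol agonist; inhibitors block coactivator peptide binding and lower the FRET signal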
[17] = THP-1 cell cytotoxicity, dose response, cytotoxicity control for Vif-APOBEC3G degradation inhibitor project, THP-1 cells (AID 1117359); assay type: functional; settings: Human immunodeficiency virus 1, THP-1
Vero = Vero cell cytotoxicity, cytotoxicity control for flavivirus capping enzyme inhibitors (AID 588742); assay type: functional; settings: Chlorocebus sabaeus
[18] = biological target: Induced myeloid leukemia cell differentiation protein Mcl-1 (Homo sapiens, UniProt Q07820); assay type: functional
[19] = biological target: T3, Apoptotic protease-activating factor 1 (Homo sapiens, UniProt O14727); assay type: functional
T3 sequence (O14727 whole entry): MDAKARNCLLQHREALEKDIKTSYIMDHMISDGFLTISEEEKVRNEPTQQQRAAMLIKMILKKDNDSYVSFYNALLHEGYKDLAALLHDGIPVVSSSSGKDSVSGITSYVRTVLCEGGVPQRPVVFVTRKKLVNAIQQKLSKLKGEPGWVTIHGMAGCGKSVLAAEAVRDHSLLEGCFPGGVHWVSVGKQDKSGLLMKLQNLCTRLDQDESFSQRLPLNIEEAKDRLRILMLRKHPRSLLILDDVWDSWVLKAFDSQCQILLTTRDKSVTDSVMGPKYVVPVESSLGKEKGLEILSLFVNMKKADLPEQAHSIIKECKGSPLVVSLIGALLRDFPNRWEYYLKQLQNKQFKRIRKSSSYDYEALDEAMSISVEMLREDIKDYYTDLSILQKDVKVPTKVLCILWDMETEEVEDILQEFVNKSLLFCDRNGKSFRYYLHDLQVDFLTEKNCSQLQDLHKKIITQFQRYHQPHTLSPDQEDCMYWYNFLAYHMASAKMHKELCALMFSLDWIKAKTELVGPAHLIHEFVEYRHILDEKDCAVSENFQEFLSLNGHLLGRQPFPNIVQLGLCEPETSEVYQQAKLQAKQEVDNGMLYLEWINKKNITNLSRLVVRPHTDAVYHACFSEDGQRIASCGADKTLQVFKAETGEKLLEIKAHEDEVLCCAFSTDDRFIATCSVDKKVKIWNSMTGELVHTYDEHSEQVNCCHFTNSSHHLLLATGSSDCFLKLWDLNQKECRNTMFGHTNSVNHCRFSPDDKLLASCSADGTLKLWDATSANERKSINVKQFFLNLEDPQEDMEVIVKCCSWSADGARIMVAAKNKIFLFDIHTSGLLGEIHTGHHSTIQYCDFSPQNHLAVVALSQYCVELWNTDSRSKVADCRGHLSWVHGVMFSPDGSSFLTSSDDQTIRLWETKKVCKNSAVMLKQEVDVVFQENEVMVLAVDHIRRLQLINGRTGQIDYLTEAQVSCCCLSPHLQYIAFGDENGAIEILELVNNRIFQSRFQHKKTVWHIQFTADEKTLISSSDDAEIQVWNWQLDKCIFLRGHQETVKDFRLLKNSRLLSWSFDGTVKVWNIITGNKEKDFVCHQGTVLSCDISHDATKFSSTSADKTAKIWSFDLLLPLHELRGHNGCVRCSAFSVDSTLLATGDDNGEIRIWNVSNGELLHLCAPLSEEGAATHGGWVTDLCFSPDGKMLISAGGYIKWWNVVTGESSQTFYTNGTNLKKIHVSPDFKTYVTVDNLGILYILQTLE

## CCOC(=O)c1nn(-c2ccc(Cl)cc2)c2nc(-c3ccc(C)cc3)c(C#N)c(=O)n12
[1]
  EC50: > 79.4 µM (not active)
[2]
  EC50: > 79.4 µM (not active)
[3]
  EC50: > 79.4 µM (not active)

## COc1ccc(C2C(C(=O)NCc3ccco3)CCC(=O)N2c2ccc(OC)cc2)cc1 (stereo not drawn)
[4]
  IC50: > 93.1 µM (not active)

## COc1ccccc1NC(=O)c1nc(S(=O)(=O)Cc2ccccc2)ncc1Cl
Cells [5]
  EC50: 5 µM (active)
[6]
  AC50: 21.1 µM (active)
[7]
  AC50: 8.91 µM (active)
Paired box protein Pax-8
  AC50: 8.83 µM (active)
INS1
  AC50: 6.44 µM (active)
[8]
  AC50: 6.58 µM (active)
Cells [9]
  EC50: > 350 µM (not active)
[10]
  AC50: 0.492 µM (active)
[11]
  AC50: 14.2 µM (active)

## CCOc1ccc(-c2csc(NNC3=NCCCCC3)n2)cc1
[1]
  EC50: > 79.4 µM (not active)
[12]
  IC50: > 66 µM (inactive)
[2]
  EC50: > 79.4 µM (not active)
[3]
  EC50: > 79.4 µM (not active)
[13]
  IC50: > 66 µM (inactive)

## N#C[C@@H]1[C@@H](c2ccc(C#Cc3ccc(F)cc3)cc2)[C@H](CO)N1C(=O)C1CCC1
[14]
  AC50: > 39 µM (inactive)
[15]
  AC50: 6.15 µM (active)

## O=C(CSc1ccc(-c2ccco2)nn1)NC1CCCC1
[16]
  EC50: 0.75 µM (not active)

## CSCCC(NC(=O)c1ccco1)C(=O)OCC(=O)Nc1sccc1C#N (stereo not drawn)
Estrogen receptor beta
  IC50: 16.5 µM (active)

## O=C(Nc1ccncc1)Nc1ccncc1
[16]
  EC50: 8.86 µM (not active)

## Nc1nc(Sc2ccc([N+](=O)[O-])c3nonc23)c2nc[nH]c2n1
[6]
  AC50: 1.17 µM (active)
[17]
  CC50: 0.68 µM (active)
Vero
  CC50: 5.9 µM (active)

## COc1cc(C(=O)NCc2cn3ccsc3n2)cc(OC)c1OC
[4]
  IC50: 53.1 µM (not active)

## Cc1ccc2c(c1)c1ccc3c(c1n2C)C(=O)C=CC3=O
[17]
  CC50: 12.5 µM (active)
[18]
  IC50: 1.51 µM (active)
[12]
  IC50: > 66 µM (inactive)
[19]
  IC50: 51.8 µM (active)
Vero
  CC50: 27.3 µM (active)
[16]
  EC50: 958 µM (active)
[13]
  IC50: > 66 µM (inactive)

## CCOc1nc(-c2ccccc2)ccc1-c1noc(-c2cccs2)n1
[1]
  EC50: 25.8 µM (not active)
[2]
  EC50: 29.6 µM (not active)
[3]
  EC50: 21.2 µM (not active)

## O=C(c1ccccc1)c1nc[nH]c1C(=O)Nc1ccccn1
[4]
  IC50: > 93.1 µM (not active)
